Assay results published in the supplement of paper PMC9265050, “Inhibition of RNA Binding in SND1 Increases the Levels of miR-1-3p and Sensitizes Cancer Cells to Navitoclax” (Cancers, 2022).

System: SW480
Test: drug sensitivity score (DSS, integrated dose-response area); higher = more sensitive (stronger viability reduction); extreme values may be limits of the assay
How it was run: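 Viability of induced SW480 cells carrying control or SND1-targeting shRNA was read by CellTiter-Glo 72 h after plating at 1000 cells per well onto 384-well plates holding 525 small-molecule inhibitors at five concentrations. Induction used 0.1 µg/mL doxycycline for 7 days. Each drug sensitivity score integrates the area under a fitted non-linear dose–response model.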

[1] = shRNA: SND1 shRNA1 (SND1 silenced)
[2] = shRNA: SND1 shRNA2 (SND1 silenced)
[3] = shRNA: control shRNA (non-targeting)

Compound | drug sensitivity score [1] | drug sensitivity score [2] | drug sensitivity score [3]
CC(=O)NCC(=O)N1[C@@H]2CC[C@H]1c1ccc(Nc3ncc(C(F)(F)F)c(NC4CCC4)n3)cc12 | 17.4 DSS | 14.2 DSS | 13.2 DSS
CC(C)(C)C[C@@H]1N[C@@H](C(=O)N[C@H]2CC[C@H](O)CC2)[C@H](c2cccc(Cl)c2F)[C@]12C(=O)Nc1cc(Cl)ccc12 | 1.3 DSS | 1.9 DSS | 3.3 DSS
CC(C)CC(=O)Nc1n[nH]c2c1CN(C(=O)C1CCN(C)CC1)C2(C)C | 6.1 DSS | 5.8 DSS | 10.7 DSS
CC(C)Oc1ccc(C(=O)N[C@H](CNC(=O)CN(C)C)Cc2ccc(-c3cn4cccc([C@H](C)O)c4n3)cc2)cc1Cl | 13.1 DSS | 12 DSS | 13.3 DSS
CCNC(=O)C[C@@H]1N=C(c2ccc(Cl)cc2)c2cc(OC)ccc2-n2c(C)nnc21 | 2.7 DSS | 0 DSS | 0.6 DSS
CCOc1ccn(-c2ccc(F)cc2)c(=O)c1C(=O)Nc1ccc(Oc2ccnc(N)c2Cl)c(F)c1 | 1.9 DSS | 8.3 DSS | 6.5 DSS
CCc1cc(Nc2nccc(-c3c(-c4ccc(OC)c(C(=O)Nc5c(F)cccc5F)c4)nc4ccccn34)n2)c(OC)cc1N1CCC(N2CCN(S(C)(=O)=O)CC2)CC1 | 0.2 DSS | 2.1 DSS | 0 DSS
CCc1cncnc1N1CCN(Cc2nc3ccc(C(F)(F)F)cc3[nH]2)CC1 | 0.3 DSS | 2.9 DSS | 2 DSS
CCn1c(-c2nonc2N)nc2c(C#CC(C)(C)O)ncc(OC[C@H]3CCCNC3)c21 | 0.9 DSS |  | 2 DSS
CCn1c(-c2nonc2N)nc2cnc(Oc3cccc(NC(=O)c4ccc(OCCN5CCOCC5)cc4)c3)cc21 | 4.8 DSS | 5.2 DSS | 5.5 DSS
CCn1c(C(=O)N(C2CC2)C2CC2)cc2c3c(ncn3C)c(Nc3cc(C)n(C)n3)nc21 | 0 DSS | 0 DSS | 0 DSS
CCn1cc(-c2ccnc3[nH]c(-c4cccc(CN(C)C)c4)cc23)c(-c2ccc(NC(=O)N(C)C)cc2)n1 | 7.8 DSS | 9.5 DSS | 10.2 DSS
CN(c1ccccc1CNc1nc(Nc2ccc3c(c2)CC(=O)N3)ncc1C(F)(F)F)S(C)(=O)=O | 9.7 DSS | 8.3 DSS | 9.2 DSS
CN(c1ncccc1CNc1nc(Nc2ccc3c(c2)CC(=O)N3)ncc1C(F)(F)F)S(C)(=O)=O | 4.9 DSS | 3.5 DSS | 3.4 DSS
CN1CCC(COc2cnc(-c3cccc(Cn4nc(-c5cccc(C#N)c5)ccc4=O)c3)nc2)CC1 | 0 DSS | 0 DSS | 0 DSS
CNC(=O)c1ccc(C)c(-n2c(C)cc(OCc3ccc(F)cc3F)c(Br)c2=O)c1 | 0 DSS | 1 DSS | 0 DSS
CNC(=O)c1ccccc1Nc1nc(Nc2ccc3c(c2OC)CCC[C@H](N2CCN(CCO)CC2)C3)ncc1Cl | 3.9 DSS | 3.5 DSS | 5.5 DSS
CNc1nc(-c2ccc3c(N)n[nH]c3c2)cc(N2C[C@@H](C(=O)NC3CCCCC3)CC[C@H]2C)n1 | 4.7 DSS | 4.2 DSS | 3.8 DSS
CNc1ncc2cc(-c3cc(NC(=O)NCCC(C)(C)C)c(F)cc3C)c(C)nc2n1 | 13.4 DSS | 6.6 DSS | 9.7 DSS
COCC(=O)NC/C=C/c1ccc2ncnc(Nc3ccc(Oc4ccc(C)nc4)c(C)c3)c2c1 | 3.4 DSS |  | 3.2 DSS
COc1cc2ncnc(Oc3cccc(NC(=O)Nc4cc(C(C)(C)C(F)(F)F)on4)c3)c2cc1OC | 4.5 DSS | 0 DSS | 4.2 DSS
COc1ccc(-c2cc3c(C)nc(N)nc3n([C@H]3CC[C@H](OCCO)CC3)c2=O)cn1 | 17.3 DSS | 13.9 DSS | 9.3 DSS
COc1ccc(Cn2ccc3ccc(C(=O)NO)cc32)cc1 | 3.3 DSS | 5.3 DSS | 1.8 DSS
CS(=O)(=O)N1CCc2c(-c3cnc(N)nc3)nc(N3CCOCC3)nc21 | 7 DSS | 6.4 DSS | 4.2 DSS
C[C@@H](Oc1cc(-n2cnc3ccc(CN4CCN(C)CC4)cc32)sc1C(N)=O)c1ccccc1C(F)(F)F | 25.1 DSS |  | 23.6 DSS
C[C@@H](Oc1ccc2[nH]nc(/C=C/c3cnn(CCO)c3)c2c1)c1c(Cl)cncc1Cl | 8.9 DSS | 3.6 DSS | 4.2 DSS
C[C@@]1(C(=O)Nc2ccc(F)nc2)CCCN1c1nc(Nc2cc(C3CC3)n[nH]2)c2cccn2n1 | 8.1 DSS | 4.6 DSS | 2.4 DSS

Compound | drug sensitivity score [1] | drug sensitivity score [2] | drug sensitivity score [3]
C[C@H]1Oc2cc(cnc2N)-c2c(nn(C)c2C#N)CN(C)C(=O)c2ccc(F)cc21 | 0.2 DSS | 0.4 DSS | 1.9 DSS
Cc1c(Cn2c(C)nc3c(C(=O)O)cc(N4CCOCC4)cc32)cccc1C(F)(F)F | 2 DSS | 3.3 DSS | 0.8 DSS
Cc1c(NC(=O)OC[C@@H]2COCCN2)cn2ncnc(Nc3ccc4c(cnn4Cc4cccc(F)c4)c3)c12 | 2 DSS | 3.1 DSS | 4 DSS
Cc1ccc(C(=O)N(CCCN)[C@@H](c2oc3cc(Cl)ccc3c(=O)c2Cc2ccccc2)C(C)C)cc1 | 2.9 DSS | 3.7 DSS | 5.5 DSS
Cc1ccc2nc(CN(CCN(Cc3nc4ccc(C)cc4[nH]3)Cc3nc4ccc(C)cc4[nH]3)Cc3nc4ccc(C)cc4[nH]3)[nH]c2c1 | 1.5 DSS | 1.3 DSS | 2.1 DSS
Cc1cccc(CC(=O)N2CCc3c2ccc(-c2cn(C)c4ncnc(N)c24)c3F)n1 | 0 DSS | 3.3 DSS | 0 DSS
Cc1nc(Nc2n[nH]c3c2CN(C(=O)N[C@H](CN(C)C)c2ccccc2)C3(C)C)c2sccc2n1 | 14.9 DSS | 13.7 DSS | 16.5 DSS
Cc1ncc(Cl)cc1NCc1ccc(C(=O)N[C@@H](CC2CCCC2)C(=O)NC2CC2)s1 | 0 DSS | 0 DSS | 0.3 DSS
Cc1nn(C)c(COc2ccc(N3CCN(S(=O)(=O)N(C)C)CC3)cc2)c1-c1cccc2c(CCCOc3cccc4ccccc34)c(C(=O)O)n(CCN3CCOCC3)c12 | 4.9 DSS | 4.4 DSS | 5.7 DSS
Cn1cc(-c2ccc3nnc(C(F)(F)c4ccc5ncccc5c4)n3n2)cn1 | 0 DSS | 0 DSS | 1.3 DSS
Cn1cc(C2=Nc3cc(NC(=O)C(N)C4CCCCC4)cc4c3C2=CNNC4=O)cn1 (stereo not drawn) | 8.3 DSS | 8.3 DSS | 10.7 DSS
N#Cc1ccc(COC[C@H]2O[C@@H](n3c(NCc4ccc(Cl)c(Cl)c4)nc4c(N)ncnc43)[C@H](O)[C@@H]2O)cc1 | 0 DSS | 0 DSS | 0.1 DSS
NCC(=O)Nc1ccc(-n2nc(C(F)(F)F)cc2-c2ccc3c(ccc4ccccc43)c2)cc1 | 10 DSS | 5.3 DSS | 7.5 DSS
NC[C@@](O)(c1ccc(Cl)cc1)c1ccc(-c2cn[nH]c2)cc1 | 8 DSS | 4.7 DSS | 10.2 DSS
Nc1nccc(-c2c(-c3ccc(F)cc3)ncn2C2CCCCC2)n1 | 0.8 DSS | 0.4 DSS | 0.8 DSS
Nc1ncnc2c1c(COc1cccc(Cl)c1)nn2C1CCOCC1 | 0 DSS | 0.1 DSS | 0 DSS
O=C(NC[C@H](O)CN1CCc2ccccc2C1)c1cc(NC2COC2)ncn1 | 0 DSS | 0 DSS | 0.2 DSS
O=C(NOCC1CC1)c1ccc(F)c(F)c1Nc1ccc(I)cc1Cl | 16.4 DSS | 7.4 DSS | 10.5 DSS
O=C(NOC[C@H](O)CO)c1ccc(F)c(F)c1Nc1ccc(I)cc1F | 17.9 DSS | 8.2 DSS | 9.5 DSS
O=C(Nc1ccc2[nH]nc(-c3ccncc3)c2c1)[C@@H]1CCN(CC(=O)N2CCN(c3ccc(-c4ncccn4)cc3)CC2)C1 | 14.2 DSS | 8.8 DSS | 7.9 DSS
O=C(O)c1ccc(-c2c[nH]c3ncc(-c4ccccc4)cc23)cc1C1CCCC1 | 1.9 DSS | 3.3 DSS | 3.4 DSS
O=C(O)c1ccc(CN2CCC(CN[C@@H]3C[C@H]3c3ccccc3)CC2)cc1 | 0 DSS | 8 DSS | 1.2 DSS
O=C1NC(=O)/C(=C/c2ccc3nccc(-c4ccncc4)c3c2)S1 | 7.6 DSS |  | 5.9 DSS
O=c1[nH]c(C2CCCN2)nc2c1oc1ccc(Cl)cc12 (stereo not drawn) | 1.5 DSS | 0 DSS | 8.1 DSS
O=c1cc(N2CCOCC2)oc2c(-c3ccccc3)cccc12 | 8.9 DSS | 9.9 DSS | 8.3 DSS
OCCn1cc(-c2cnc3nnn(Cc4ccc5ncccc5c4)c3n2)cn1 | 0 DSS | 0 DSS | 0 DSS
Oc1c2ccccc2c2c3c(cccc13)N=N2 | 1.8 DSS | 3.4 DSS | 0.6 DSS
